Measured values reported in ChEMBL document CHEMBL1201862, “PubChem BioAssay data set” (2004).
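How tested: cells in 96-well plates exposed to compound for 48 hours at five concentrations. GI50 = concentration required for 50% inhibition of growth.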 Calls of active or inactive are those of the source. No stated cut-off is given here; in the data, active = GI50 up to about 1.1 µM and inactive = higher.

Assays:
Experiment in all cases: inhibition of tumour cell growth, NCI panel, 48 h
[1] = tested on: SF-268
[2] = tested on: COLO 205
[3] = tested on: M14
[4] = tested on: HOP-62
[5] = tested on: OVCAR-8
[6] = tested on: HL-60
[7] = tested on: LOX IMVI
[8] = tested on: Hs-578T
[9] = tested on: UACC-62
[10] = tested on: HCC 2998
[11] = tested on: HCT-15
[12] = tested on: ACHN
[13] = tested on: K562
[14] = tested on: BT-549
[15] = tested on: SW-620
[16] = tested on: SF-295
[17] = tested on: OVCAR-4
[18] = tested on: RPMI-8226
[19] = tested on: SK-OV-3
[20] = tested on: SF-539

| SMILES | GI50 [1] | GI50 [2] | GI50 [3] | GI50 [4] | GI50 [5] | GI50 [6] | GI50 [7] | GI50 [8] | GI50 [9] | GI50 [10] | GI50 [11] [µM] | GI50 [12] | GI50 [13] | GI50 [14] | GI50 [15] | GI50 [16] | GI50 [17] | GI50 [18] | GI50 [19] | GI50 [20] |
| --- | --- | --- | --- | --- | --- | --- | --- | --- | --- | --- | --- | --- | --- | --- | --- | --- | --- | --- | --- | --- |
| Cc1cc(Cc2cc(Cc3cc(C)cc(C(C)(C)C)c3O)c(C)cc2C)c(O)c(C(C)(C)C)c1 | 15.9 µM (inactive) | 19.5 µM (inactive) | 17.4 µM (inactive) | 17.5 µM (inactive) | 24.9 µM (inactive) | 20.9 µM (inactive) | 20 µM (inactive) | 17.5 µM (inactive) | 13.4 µM (inactive) | 13.5 µM (inactive) | 17.4 | 16.1 µM (inactive) | 15.7 µM (inactive) | 17.5 µM (inactive) | 17.9 µM (inactive) | 18.9 µM (inactive) | 11 µM (inactive) | 20 µM (inactive) | 16.7 µM (inactive) | – |
| Cc1cc2nc3n(c2cc1C)C(c1c(F)cccc1F)SC3 (stereo unspecified) | 27.6 µM (inactive) | 20.7 µM (inactive) | 19.8 µM (inactive) | 23.9 µM (inactive) | 33.3 µM (inactive) | – | 15.7 µM (inactive) | 15.4 µM (inactive) | > 10 µM (inactive) | 21.2 µM (inactive) | > 10 | 17.4 µM (inactive) | 17.6 µM (inactive) | 28.1 µM (inactive) | 21.3 µM (inactive) | 22.3 µM (inactive) | 22.9 µM (inactive) | 25.4 µM (inactive) | 62.7 µM (inactive) | 19.9 µM (inactive) |
| COc1ccccc1-n1c(=O)n(C)c(=O)n1C(C)(C)C | > 100 µM (inactive) | > 100 µM (inactive) | > 100 µM (inactive) | – | > 100 µM (inactive) | > 100 µM (inactive) | > 100 µM (inactive) | > 100 µM (inactive) | > 100 µM (inactive) | 0.288 µM (active) | > 100 | – | > 100 µM (inactive) | > 100 µM (inactive) | > 100 µM (inactive) | – | > 100 µM (inactive) | > 100 µM (inactive) | > 100 µM (inactive) | > 100 µM (inactive) |
| CCCCCC(C)(C)CCC(=O)OC1OC(COC2OC(COC3OC(CO)C(O)C(O)C3O)C(O)C(O)C2O)C(O)C(O)C1O (stereo unspecified) | > 100 µM (inactive) | > 100 µM (inactive) | > 100 µM (inactive) | > 100 µM (inactive) | > 100 µM (inactive) | > 100 µM (inactive) | > 100 µM (inactive) | > 100 µM (inactive) | > 100 µM (inactive) | > 100 µM (inactive) | > 100 | > 100 µM (inactive) | > 100 µM (inactive) | > 100 µM (inactive) | > 100 µM (inactive) | > 100 µM (inactive) | – | > 100 µM (inactive) | > 100 µM (inactive) | > 100 µM (inactive) |
| Oc1ccc(/C=N/CC2CCCN3CCCCC23)cc1 (stereo unspecified) | 24.5 µM (inactive) | 27.6 µM (inactive) | 26.5 µM (inactive) | 26.7 µM (inactive) | 44 µM (inactive) | – | 21.4 µM (inactive) | 33.1 µM (inactive) | 24.5 µM (inactive) | 20 µM (inactive) | 24.4 | 15.5 µM (inactive) | 43.3 µM (inactive) | 21.3 µM (inactive) | – | 26.1 µM (inactive) | 17.8 µM (inactive) | 20.9 µM (inactive) | 46 µM (inactive) | 62.1 µM (inactive) |
| CC(=O)OCCOCn1c2c(c(=O)[nH]c1=O)CCC2 | > 100 µM (inactive) | > 100 µM (inactive) | > 100 µM (inactive) | > 100 µM (inactive) | > 100 µM (inactive) | > 100 µM (inactive) | > 100 µM (inactive) | > 100 µM (inactive) | – | > 100 µM (inactive) | > 100 | > 100 µM (inactive) | > 100 µM (inactive) | > 100 µM (inactive) | > 100 µM (inactive) | > 100 µM (inactive) | > 100 µM (inactive) | > 100 µM (inactive) | – | > 100 µM (inactive) |
| C=CCc1cccc2cc(C(N)=O)c(=N)oc12 | > 10 µM (inactive) | > 100 µM (inactive) | > 100 µM (inactive) | > 100 µM (inactive) | > 100 µM (inactive) | > 100 µM (inactive) | 84.7 µM (inactive) | > 10 µM (inactive) | 71.8 µM (inactive) | > 100 µM (inactive) | > 100 | 61.9 µM (inactive) | – | > 100 µM (inactive) | > 100 µM (inactive) | – | > 100 µM (inactive) | > 100 µM (inactive) | 90.2 µM (inactive) | – |
| c1cc(CN2CCNCCNCCNCC2)cc(CN2CCNCCNCCNCC2)c1 | > 100 µM (inactive) | > 100 µM (inactive) | > 100 µM (inactive) | > 100 µM (inactive) | > 100 µM (inactive) | – | > 100 µM (inactive) | > 100 µM (inactive) | > 100 µM (inactive) | > 100 µM (inactive) | > 10 | > 100 µM (inactive) | > 100 µM (inactive) | > 100 µM (inactive) | > 100 µM (inactive) | > 100 µM (inactive) | > 100 µM (inactive) | > 100 µM (inactive) | > 100 µM (inactive) | > 100 µM (inactive) |
